Biological target: T1, APOL1 G1 (Homo sapiens, UniProt O14791, I384M/S342G)
T1 sequence (O14791 28-398 S342G/I384M): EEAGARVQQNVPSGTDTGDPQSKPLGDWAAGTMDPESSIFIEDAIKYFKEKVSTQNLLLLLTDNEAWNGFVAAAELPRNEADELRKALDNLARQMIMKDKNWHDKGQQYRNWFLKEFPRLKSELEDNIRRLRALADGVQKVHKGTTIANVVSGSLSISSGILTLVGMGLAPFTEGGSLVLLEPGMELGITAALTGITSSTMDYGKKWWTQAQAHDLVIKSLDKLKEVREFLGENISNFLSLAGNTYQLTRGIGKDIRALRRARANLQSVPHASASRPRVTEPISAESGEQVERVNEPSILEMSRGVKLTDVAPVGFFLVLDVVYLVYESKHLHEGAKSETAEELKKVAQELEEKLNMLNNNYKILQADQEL
Test: MultiTox-Fluor Multiplex Cytotoxicity Assay in tet-inducible APOL1 G1 T-REx-HEK293 cells (clone G1 DC3.25)
Assay type: cell-based
Parameters: expressed in transfected cells; host or cells: T-REx HEK293, pAAVS1-Puro-APOL1 G1, clone G1 DC3.25
Settings: Multi-Tox Assay; IP50 = IC50 for cell proliferation; APOL1 variant cell line not given
Method: The MultiTox-Fluor Multiplex Cytotoxicity Assay is a single-reagent-addition, homogeneous, fluorescence assay that measures the number of live and dead cells simultaneously in culture wells. The assay measures cell viability and cytotoxicity by detecting two distinct protease activities. The live-cell protease activity is restricted to intact viable cells and is measured using a fluorogenic, cell-permeant peptide glycyl-phenylalanylamino fluorocoumarin (GF-AFC) substrate. The substrate enters intact cells, where it is cleaved to generate a fluorescent signal proportional to the number of living cells. […] A second, cell-impermeant, fluorogenic peptide substrate (bis-AAF-R110 Substrate) is used to measure dead-cell protease that has been released from cells that have lost membrane integrity. A ratio of dead to live cells is used to normalize data.
Briefly, the tet-inducible transgenic APOL1 T-REx-HEK293 cell lines were incubated with 50 ng/mL tet to induce APOL1 in the presence of 3-(2-(4-fluorophenyl)-1H-indol-3-yl)-N-((3S,4R)-4-hydroxy-2-oxopyrrolidin-3-yl)propenamide at […], 0.0045, 0.0015, 0.0005 μM in duplicate for 24 hours in a humidified 37° C. incubator. The MultiTox reagent was added to each well and placed back in the incubator for an additional 30 minutes. The plate was read on the EnVision plate reader. A ratio of dead to live cells was used to normalize, and data was imported, analyzed and fit using Genedata Screener (Basel, Switzerland) software. Data was normalized using percent of control, no tet (100% viability), and 50 ng/mL tet treated (0% viability), and fit using Smart Fit. The reagents, methods, and complete protocol for the MultiTox assay are described below.
Human embryonic kidney (HEK293) cell lines containing a tet-inducible expression system (T-REx™; Invitrogen, Carlsbad, CA) and Adeno-associated virus site 1 pAAVS1-Puro-APOL1 G0 or pAAVS1-Puro-APOL1 G1 or pAAVS1-Puro-APOL1 G2 Clones G0 DC2.13, G1 DC3.25, and G2 DC4.44 were grown in a T-225 flask at ˜90% confluency in cell growth media (DMEM, 10% Tet-free FBS, 2 mM L-glutamine, 100 Units/mL penicillin-streptomycin, 5 μg/mL blasticidin S HCl, 1 μg/mL puromycin dihydrochloride). Cells were washed with DPBS and then trypsinized to dissociate from the flask. Media was used to quench the trypsin, cells were then pelleted at 200 g and resuspended in fresh cell assay media (DMEM, 2% Tet-free FBS, 2 mM L-glutamine, 100 Units/mL penicillin-streptomycin). Cells were counted and diluted to 1.17×10^6 cells/mL. 20 μL of cells (23,400/well) were dispensed to every well of a 384-well Poly-D-Lysine coated plate using the Multidrop dispenser. The plates were then incubated at room temperature for one hour.
Tetracycline is needed to induce APOL1 expression. 1 mg/mL tet stock in water was diluted to 250 ng/mL (5×) in cell assay media. 60 μL of cell assay media (no tet control) was dispensed in columns 1 and 24, and 60 μL of 5× tet was dispensed in 384-PP-round bottom plate in columns 2 to 23 with the Multidrop dispenser.
Assay ready plates from the Global Compound Archive were ordered using template 384_APOL1Cell_DR10n2_50 μM_v3. Compounds were dispensed at 200 nL in DMSO. The final top concentration was 10 μM with a 10 point 3-fold dilution in duplicate in the MultiTox assay.
20 μL were transferred from the 5× tet plate to the ARP and mixed, then 5 μL of 5× tet and the compounds were transferred to the cell plate and mixed using the Bravo. The cell plate was placed in the humidified 37° C. 5% CO2 incubator for 24 hours.
The MultiTox-Fluor Multiplex Cytotoxicity Assay was performed in accordance with the manufacturer's protocol. After cells were incubated with tet and compound for 24 hours, 25 μL of 1× MultiTox reagent was added to each well using the Multidrop dispenser; the plates were placed on a plate shaker (600 rpm) for 2 minutes, then centrifuged briefly and placed back in the 37° C. incubator for 30 minutes. […]

[2H]C1([2H])O[C@@]2(C[C@@H](c3cn(C)nn3)N[C@@H](C)C2)c2sc(Cl)cc2[C@]1([2H])O [Compound 385, (2S,4S,4′S,6S)-2′-chloro-4′,5′,5′-trideuterio-2-methyl-6-(1-methyltriazol-4-yl)spiro[piperidine-4,7′-thieno[2,3-c]pyran]-4′-ol]
IC50: < 50 nM

Source: patent US12421249B2, “Inhibitors of APOL1 and methods of using same” (Vertex Pharmaceuticals Incorporated, priority 2020, dated 2025)
